These results are taken from patent US20080260753A1, “Mouse Models of Crohn's Disease and a Method to Develop Specific Therapeutics” (priority 2004, published 2008).

The test system of series [1] is BMDMs from WT and Nod2^2939iC (m/m) mice. As to the kind of experiment: Cytokine secretion by stimulated BMDMs (ELISA, immunoblotting). The format is cell-based, mouse. As for the experimental part: Macrophage culture and treatment. BMDMs were cultured as described (Park et al., Science 297: 2048, 2002). Confluent cultures were treated with different bacterial components including MDP (Bachem), synthetic peptidoglycan-Pam3Cys (InvivoGen), natural gram positive peptidoglycan (from S. aureus, Sigma), LPS (from E. coli, Sigma), and CpG-DNA (TIB MOLBIOL). At the indicated time points the cells or culture supernatants were collected and used to prepare cytoplasmic and nuclear protein extracts or total cellular RNA.
Gene expression analyses. Protein lysates were prepared from tissues and cultured macrophages, separated by SDS-polyacrylamide gel electrophoresis, transferred to Immobilon membranes (Millipore) and analyzed by immunoblotting. Total cellular RNA was extracted using TRIZOL (Invitrogen). cDNA was generated using SuperScript II (Invitrogen) and the amounts of the different mRNAs were measured by real-time PCR using GAPDH mRNA for normalization. Primer sequences are available upon request. Cytokine levels were measured using enzyme linked immunoadsorbent assays (ELISA).
For orientation: An ELISA detects its analyte on a solid surface through an enzyme-linked reagent.

The next series relates to WT and Nod2^2939iC mice. As to the kind of experiment: DSS colitis with IL-1RA or antibiotic treatment, body weight, survival and histological scoring. The following applies: for mortality: 3% DSS for 6 days, by 10 days after DSS exposure. Type of series: in vivo. As for the experimental part:
DSS colitis, IL-1RA treatment and histological scoring. Mice (8-12 weeks old) were given DSS (ICN Biomedicals Inc.) in the drinking water for 6 days as indicated and placed on regular water thereafter. When indicated, mice were also treated with neomycin sulfate (1.5 g/L) and metronidazole (1.5 g/L) (both from Sigma) in the drinking water or injected i.p. with either IL-1RA (Kineret®, Amgen Inc.) (100 mg/kg) in PBS or PBS alone once daily throughout the experiment. […] Histological scoring of fixed (10% formaldehyde) and sectioned (paraffin embedded) tissue was performed in a blinded manner. The scores were: 0=normal, 1=moderate mucosal inflammation without ulcer, 2=severe mucosal inflammation with ulcer (<1 mm) or no ulcer, 3=severe mucosal inflammation with ulcer (1-3 mm), 4=severe mucosal inflammation with ulcer (>3 mm).

For `CC(=O)N[C@H]1C(O)O[C@H](CO)[C@@H](O)[C@@H]1O[C@H](C)C(=O)N[C@@H](C)C(=O)N[C@H](CCC(=O)O)C(N)=O` (mixture of isomers) [MDP, muramyl dipeptide], the IL-6 secretion entry in series [1] (BMDMs stimulated with MDP) was “neither IL-6 nor TNFα were secreted”. Besides, the “release of mature IL-1β” value in series [1] (Nod2^2939iC macrophages, MDP 1 μg/ml, 24 hrs) is given as “stimulated release of mature IL-1β”.
For the compound “IL-1RA: IL-1 receptor antagonist (IL-1RA) (Kineret®, Amgen Inc.)”, the “Average body weight loss” value in the series with WT and Nod2^2939iC mice (3% DSS in drinking water for 6 days, IL-1RA 100 mg/kg i.p. once daily from the start of DSS exposure, WT and Nod2^2939iC mice) is on record as “improved”. Moreover, the “differences in weight loss and inflammatory score between the genotypes” value with WT and Nod2^2939iC mice (3% DSS plus IL-1RA 100 mg/kg/day, WT vs Nod2^2939iC mice) was “abolished”. For the same compound, the histological score result with WT and Nod2^2939iC mice (11 days after initiation of 3% DSS, IL-1RA 100 mg/kg/day i.p., WT and Nod2^2939iC mice) is reported as “improved”. The “colon histology: inflammation and ulceration compared to DSS alone” value in the series with WT and Nod2^2939iC mice (11 days after initiation of DSS plus IL-1RA (100 mg/kg/day), WT and Nod2^2939iC mice) is “decreased inflammation and ulceration”.
Turning to dextran sodium sulfate [DSS], the mortality with WT and Nod2^2939iC mice (Nod2^2939iC mice (n=16)) turned out to be 37.5%; in the series with WT and Nod2^2939iC mice (WT mice (n=19)), 0%. Further, in the series with WT and Nod2^2939iC mice (6% DSS without oral antibiotics, WT and Nod2^2939iC mice), the “time to death after DSS administration” value is reported as at most 9 days.

Usually mortality stands for the share of the test organisms that died. Low readings indicate a weak lethal effect, high ones a strong lethal effect.
